Data published in the NIST ThermoML archive (doi:10.1021/acs.jced.5b00802).

Experiments:
[1] = refractive index (Na D-line) (dimensionless); xn = mol fraction of the nth substance listed; details: 100 kPa, Liquid, Standard Abbe refractometry
[2] = xn = mol fraction of the nth substance listed; details: 100 kPa, Liquid; for speed of sound: Frequency=3 MHz, Sing-around technique in a fixed-path interferometer; for mass density: Vibrating tube method

CCCCN [1-butanamine] + CN(C)C=O
Details	mass density, [2] [kg/m3]	refractive index, [1]	speed of sound, [2] [m/s]
293.15 K, x2 = 0.0599	747.39	1.40222	1277.7
293.15 K, x2 = 0.1056	755.445	1.40348	1285
293.15 K, x2 = 0.1591	765.035	1.40498	1293.8
293.15 K, x2 = 0.201	–	1.40619	–
293.15 K, x2 = 0.2505	782.005	1.4076	1309.6
293.15 K, x2 = 0.3017	791.811	1.40911	1318.9
293.15 K, x2 = 0.3583	802.88	1.41079	1329.6
293.15 K, x2 = 0.3992	811.114	1.412	1337.8
293.15 K, x2 = 0.4401	–	1.41322	–
293.15 K, x2 = 0.5059	833.13	1.41521	1359.6
293.15 K, x2 = 0.5483	842.154	–	1368.9
293.15 K, x2 = 0.6043	–	1.41829	–
293.15 K, x2 = 0.6569	866.102	1.41992	1393.7
293.15 K, x2 = 0.6999	875.844	1.42126	1404
293.15 K, x2 = 0.7537	888.314	1.42292	1416.7
293.15 K, x2 = 0.8036	900.101	1.42448	1429
293.15 K, x2 = 0.8579	913.315	1.42618	1442.3
293.15 K, x2 = 0.9048	924.751	1.42763	1453.7
293.15 K, x2 = 0.9546	937.212	1.42915	1465.6
298.15 K, x2 = 0.0575	742.224	1.39946	1255.4
298.15 K, x2 = 0.1092	751.333	1.40093	1263.9
298.15 K, x2 = 0.1519	759.015	1.40215	1271.1
298.15 K, x2 = 0.2043	768.674	1.40367	1280.1
298.15 K, x2 = 0.2448	776.215	1.40485	1287.4
298.15 K, x2 = 0.309	788.51	1.4068	1299.3
298.15 K, x2 = 0.3558	797.705	1.4082	1308.4
298.15 K, x2 = 0.3986	806.285	–	1317
298.15 K, x2 = 0.4381	814.268	–	1324.9
298.15 K, x2 = 0.5028	827.736	1.41274	1338.6
298.15 K, x2 = 0.6005	848.795	1.41578	1360.6
298.15 K, x2 = 0.6608	–	1.41769	–
298.15 K, x2 = 0.6934	869.781	1.41871	1382.5
298.15 K, x2 = 0.7572	884.516	1.42076	1398
298.15 K, x2 = 0.8056	895.958	1.4223	1410
298.15 K, x2 = 0.8546	–	1.42383	–
298.15 K, x2 = 0.9076	920.837	1.42553	1435.1
298.15 K, x2 = 0.9553	932.723	1.42705	1446.6
303.15 K, x2 = 0.0505	736.213	1.39644	1233
303.15 K, x2 = 0.1477	753.539	1.39927	1249.4
303.15 K, x2 = 0.2019	763.466	1.40087	1259
303.15 K, x2 = 0.241	770.708	1.40209	1266
303.15 K, x2 = 0.3024	782.423	1.40392	1277.5
303.15 K, x2 = 0.3558	792.882	1.40552	1287.8
303.15 K, x2 = 0.3992	–	1.40686	–
303.15 K, x2 = 0.4358	808.96	1.40802	1304.1
303.15 K, x2 = 0.5114	824.673	1.41041	1320.3
303.15 K, x2 = 0.5281	828.281	1.41094	1324
303.15 K, x2 = 0.6056	845.104	1.41337	1341.6
303.15 K, x2 = 0.6574	–	1.41502	–
303.15 K, x2 = 0.696	865.473	1.41625	1363.2
303.15 K, x2 = 0.7558	879.286	1.4182	1377.7
303.15 K, x2 = 0.8006	889.962	1.41964	1389
303.15 K, x2 = 0.8544	902.88	1.42138	1402.3
303.15 K, x2 = 0.8998	914.033	1.42282	1413.7
303.15 K, x2 = 0.9466	925.732	1.42431	1425.2

CCCNCCC [dipropylamine] + CN(C)C=O
Details	mass density, [2] [kg/m3]	refractive index, [1]	speed of sound, [2] [m/s]
293.15 K, x2 = 0.06	745.894	1.40543	1218.2
293.15 K, x2 = 0.1071	752.141	–	1225
293.15 K, x2 = 0.1556	–	1.40725	–
293.15 K, x2 = 0.156	758.933	–	1232.9
293.15 K, x2 = 0.1975	764.87	–	1239.3
293.15 K, x2 = 0.249	772.54	–	1248.1
293.15 K, x2 = 0.2614	–	1.40952	–
293.15 K, x2 = 0.3099	782.194	–	1259.4
293.15 K, x2 = 0.3463	788.151	1.4114	1266.2
293.15 K, x2 = 0.3985	797.199	1.41266	1276.9
293.15 K, x2 = 0.448	806.192	–	1287.6
293.15 K, x2 = 0.4554	–	1.41402	–
293.15 K, x2 = 0.4974	815.656	–	1299.2
293.15 K, x2 = 0.5487	825.989	1.41645	1312
293.15 K, x2 = 0.6018	–	1.41789	–
293.15 K, x2 = 0.6562	849.651	–	1342.1
293.15 K, x2 = 0.7033	–	1.42079	–
293.15 K, x2 = 0.7514	873.097	–	1373.4
293.15 K, x2 = 0.8216	892.212	1.42444	1399.8
293.15 K, x2 = 0.8501	900.523	–	1411.2
293.15 K, x2 = 0.8844	–	1.42653	–
293.15 K, x2 = 0.9025	916.508	–	1433.3
293.15 K, x2 = 0.9486	931.283	1.42882	1453.4
298.15 K, x2 = 0.0626	741.577	1.40259	1196.9
298.15 K, x2 = 0.1083	747.697	1.40358	1204
298.15 K, x2 = 0.1544	754.025	1.40443	1211.2
298.15 K, x2 = 0.2541	768.732	1.40662	1228.1
298.15 K, x2 = 0.3148	778.293	1.40796	1239.3
298.15 K, x2 = 0.3609	786.012	1.40908	1248.3
298.15 K, x2 = 0.4077	794.223	1.41017	1258.2
298.15 K, x2 = 0.4966	810.8	1.41247	1278.5
298.15 K, x2 = 0.5386	819.199	–	1288.9
298.15 K, x2 = 0.6082	833.997	–	1307.9
298.15 K, x2 = 0.6527	844.084	1.41673	1321.1
298.15 K, x2 = 0.7477	867.448	1.4196	1352.4
298.15 K, x2 = 0.8063	883.226	1.42147	1374
298.15 K, x2 = 0.902	911.457	1.42478	1413.1
298.15 K, x2 = 0.9482	926.367	1.42645	1433.5
303.15 K, x2 = 0.0453	734.885	1.39971	1174
303.15 K, x2 = 0.1034	742.55	1.40091	1183
303.15 K, x2 = 0.1963	755.529	1.40293	1198
303.15 K, x2 = 0.2582	764.775	1.40419	1208.8
303.15 K, x2 = 0.3559	780.614	1.40647	1227.6
303.15 K, x2 = 0.4099	790.03	1.40779	1239
303.15 K, x2 = 0.4565	798.539	–	1249.4
303.15 K, x2 = 0.5415	815.193	–	1270.3
303.15 K, x2 = 0.6016	827.909	1.41295	1286.6
303.15 K, x2 = 0.6517	839.209	–	1301.4
303.15 K, x2 = 0.7502	863.388	1.41745	1334
303.15 K, x2 = 0.8498	890.941	1.4207	1372
303.15 K, x2 = 0.9	906.165	1.42246	1393.2
303.15 K, x2 = 0.9498	922.203	1.42417	1415.2
